# Measurements taken from patent US12539284B2, “Aminoxy acid-based anti-cancer stem cell compounds and methods thereof” (Westlake University, priority 2019, dated 2026).
# Like-named read-outs stand apart in the source and are kept apart here.
# How the values were obtained:
# HEY A8 CSCs (HEY A8 SP) = experiment: Toxicity / cell viability (CellTiter-Glo) on HEY A8 spheres (CSCs); assay type: cell-based, human; details: for selectivity towards ovarian CSCs over ovarian cancer cells and normal cells: from IC50 values, FIG. 4 and Table 1
# Description: Aminoxy acids were synthesized by the standard peptide coupling procedures. The CSCs are obtained by spheroids culturing under suspension condition. It is confirmed that these spheres indeed contain significant higher population of cells with CD133 antigenic phenotype, which has been reported can represent ovarian CSCs (FIG. 2). After treatment with compounds for 48 h, the cell viability of CSCs was measured by using CELLTITER-GLO® luminescent reagent. Compound sff-3-85 (“Example 2”) were used at the dose of 10 μM, all the other compounds were used at the concentration of 5 μM. All experiments were performed three times and data is presented as mean±SD.
# (§1) Cell Cultures Human ovarian carcinoma cell lines HEY A8 and SKOV3 were gifts from Professor Alice Wong's group (The University of Hong Kong). Cells were grown in Dulbecco's Modified Eagle (DMEM) medium supplemented with 10% FBS and 1% penicillin/streptomycin at 37° C. in a humidified atmosphere containing […] CO2. Isolation and culture of spheres were performed in serum-free stem-cell-selective condition as described in literature Ip etl. Oncogene 2014, 5, 9133-9149. Briefly, 1-2 weeks after plating, non-adherent spherical clusters of cells could be observed and were separated from single cells by low speed centrifugation. After 8th to 10th passages, the non-adherent spherical clusters of cells appeared as distinct spheres. Using this selection condition, HEY A8 spheres (HEY A8 SP) or SKOV3 spheres (SKOV3 SP) could be enzymatically dissociated and reformed into spheres within 3 days under stem-cell-selective condition. To allow differentiation, dissociated sphere cells were plated on tissue culture plates in medium (MCDB 105:M199=1:1) supplemented with 10% FBS and 1% PS.
# (§2) HEY A8 SP cells (5×10^4) were plated in triplicate in 10 mL serum-free MCDB105 medium in 100-mm Petri dish for 7 days to form spheres. Compound at the final concentration of 5 μM was added. The cells were further incubated at 37° C. for 48 h. After that cells were collected by centrifugation and the medium was removed. Then 100 μL CellTiter-Glo® Luminescent Cell Viability reagent was added into each tube, which was incubated for 10 min with shaking. After that, the reagent was transferred into 96-well plates and cell viability was measured using a microplate reader (SpectraMax 340PC 384, Molecular Devices).
# as §2, with “A8 SP cells or SKOV3” for “A8”, “Then drugs” for “Compound”, “different” for “the final”, “were” for “of 5 μM was”, “μL of” for “μL”
# NIH3T3 = experiment: Toxicity against normal cell line NIH3T3; assay type: cell-based
# Description: (§3) Fourteen compounds including aminoxy acid monomers and dipeptides have been identified to show toxicity against HEY A8 CSCs. The half maximal inhibitory concentration (IC50) values of compounds sff-2-112, sff-2-124, sff-2-132 and sff-2-100 towards adherent cancer HEY A8, SKOV3 cells and CSCs were further determined. […] Especially compound sff-2-132, its selectivity to CSCs is up to 60-fold higher than that to cancer cells. Their toxicity against other normal cell lines NIH3T3, HEK293 and MDCK were also tested and the IC50 values were summarized in Table 1.
# MDCK = experiment: Toxicity against normal cell line MDCK; assay type: cell-based
# Description: as §3
# HEY A8 cancer cells = experiment: Cell viability (CellTiter-Glo) on adherent HEY A8 cancer cells; assay type: cell-based, human; details: read-out: IC50 Cancer Cell HeyA8
# Description: as §1
# (§4) HEY A8 or SKOV3 cancer Cells were plated in triplicate in 0.1 mL full medium in 96-well plates for 24 h. After that, the medium was changed to the fresh prepared medium with various concentrations of compounds. Cells were incubated for another 48 h. Then the cell viability was measured by CellTiter-Glo® Luminescent Cell Viability reagent according to the manufacture's instruction. The luminescence at 550 nm was measured using a microplate reader (SpectraMax 340PC 384, Molecular Devices).
# HEK293 = experiment: Toxicity against normal cell line HEK293; assay type: cell-based
# Description: as §3
# HEY A8 CSCs [1] = experiment: Apoptosis, Annexin V / PI flow cytometry, CSCs; assay type: cell-based, human; details: 5 μM, 2 days; DMSO 4.92%
# Description: A suspension of HEY A8 cells at the concentration of 5×10^4 cells/mL in DMEM medium were seeded into 60-mm cell culture dishes. Cells were incubated at 37° C. in a humidified atmosphere containing 5% CO2 for 24 h followed by the addition of 4 mL fresh medium or medium containing compound sff-2-112 (“Example 1”) or sff-2-132 (“Example 4”) at different concentration. Medium containing 0.1% DMSO was used as negative control. After 2 days, the medium was aspirated and cells were washed with cold PBS twice, and then stained with PI and Annexin V according to the manufacture's instruction (Dead Cell Apoptosis Kit with Annexin V Alexa Fluor™ 488 & Propidium Iodide, Thermo Fisher). Cells were analyzed by flow cytometry (BD FACS CantoII Analyzer).
# HEY A8 CSCs [2] = experiment: In vivo tumor seeding ability of pretreated HEY A8 CSCs; details: CSCs pretreated 2 days in vitro, 10^6 cells injected subcutaneously in mice, 25 days
# Description: In vivo tumor seeding ability of cells after treatment with compound sff-2-112 (“Example 1”) or sff-2-132 (“Example 4”) was evaluated. Taxol was used as a negative control. For this experiment, HEY A8 CSCs were pretreated with sff-2-112 (“Example 1”), sff-2-132 (“Example 4”) or Taxol for 2 days in suspension medium, respectively. Then cells were allowed to proliferate in full medium in the absence of drugs for 10 days. After that, 10^6 cells were injected into mice subcutaneously. Tumor size was measured for 25 days after injection.
# HEY A8 cells = experiment: Population of CD133+ cells by flow cytometry (PE-conjugated CD133 antibody); assay type: cell-based, human; details: Paclitaxel 100 nM, 3 days; control 21.8%
# Description: CD133 has been reported to be a marker of ovarian CSCs. After cells treated with synthetic molecule, the population of CD133^+ cells were measured. HEY A8 cells were treated with taxol (100 nM), compound sff-2-112 (“Example 1”) or sff-2-132 (“Example 4”) at the concentration of 15 μM. Medium containing 0.1% DMSO was used as a negative control.
# A suspension of HEY A8 cells at the concentration of 2.5×10^4 cells/mL in DMEM medium were seeded into 60-mm cell culture dishes. Cells were incubated at 37° C. in a humidified atmosphere containing 5% CO2 for 24 h, followed by the addition of 4 mL fresh medium or medium containing Paclitaxel (100 nM), sff-2-112 (15 μM) or compound sff-2-132 (15 μM). Medium containing 0.1% DMSO was used as a negative control. After 3 days, the medium was removed and cells were washed with cold PBS twice, and then stained with PE-conjugated CD133 antibody according to the manufacture's instruction. The fluorescence was analyzed by flow cytometry.
# Huh 7 CD133- cells = experiment: Cell viability (CellTiter-Glo) of sorted Huh 7 CD133- cells; assay type: cell-based; details: 48 h, different doses
# Description: (§5) Huh-7 cells were stained with PE-conjugated CD133 antibody (HCC cancer stem cell marker) according to the manufacturer's instructions. Then CD133^+ cells (Huh 7 cancer stem cells) and CD133− cells were sorted by flow cytometry and seeded into 96-well plate with fresh DMEM medium. After 24 h, medium was changed to fresh medium with compound sff-2-112 (“Example 1”) or sff-2-124 (“Example 3”) at different doses. After 48 h, cell viability was analyzed by CellTiter-Glo luminescent agent.
# SKOV3 cancer cells = experiment: Cell viability (CellTiter-Glo) on adherent SKOV3 cancer cells; assay type: cell-based, human; details: 48 h incubation
# Description: as §1, §4
# [3] = tested on: Huh 7 cancer stem cells (CD133+); experiment: Cell viability (CellTiter-Glo) of sorted Huh 7 CD133+ cells; assay type: cell-based; details: 48 h
# Description: as §5
smiles,measurement,setting,value
CC(C)COC(=O)[C@@H](COCc1ccccc1)ONC(=O)c1cc(C(F)(F)F)cc(C(F)(F)F)c1 [sff-3-87],cell viability of HEY A8 CSCs (toxicity),"HEY A8 CSCs (HEY A8 SP); compound 5 μM, 48 h",significantly decreased the cell viability
CC(C)(C)Oc1ccc(C[C@@H](ONC(=O)c2cc(C(F)(F)F)cc(C(F)(F)F)c2)C(=O)Nc2ccccc2)cc1 [sff-3-101],cell viability of HEY A8 CSCs (toxicity),"HEY A8 CSCs (HEY A8 SP); compound 5 μM, 48 h",significantly decreased the cell viability
O=C(NO[C@H](COCc1ccccc1)C(=O)NO[C@@H](Cc1ccccc1)C(=O)Nc1ccccc1)c1cc(C(F)(F)F)cc(C(F)(F)F)c1 [sff-2-100],IC50,"NIH3T3; Mus musculus, NIH3T3",2.8 ± 0.9 µM
same,IC50,"MDCK; Canis lupus familiaris, MDCK",18 ± 0.7 µM
same,rank of toxicity among the 14 molecules on HEY A8 CSCs,"HEY A8 CSCs (HEY A8 SP); 5 μM, 48 h",highest toxicity
same,IC50,"HEY A8 CSCs (HEY A8 SP); Homo sapiens, HEY A8 spheres, 48 h incubation, read-out: IC50 Cancer Stem Cell HeyA8 SP",2.8 ± 0.9 µM
same,cell viability of HEY A8 CSCs (toxicity),"HEY A8 CSCs (HEY A8 SP); compound 5 μM, 48 h",significantly decreased the cell viability
same,selectivity towards ovarian CSCs over ovarian cancer cells and normal cells,HEY A8 CSCs (HEY A8 SP),selectively induce the death of ovarian CSCs
same,IC50,"HEY A8 cancer cells; Homo sapiens, HEY A8, 48 h incubation",22.4 ± 1 µM
same,IC50,"HEK293; Homo sapiens, HEK293",18.3 ± 0.6 µM
CC(OCc1ccccc1)[C@@H](ONC(=O)c1cc(C(F)(F)F)cc(C(F)(F)F)c1)C(=O)Nc1ccccc1 (stereo partly shown) [sff-3-98-2],cell viability of HEY A8 CSCs (toxicity),"HEY A8 CSCs (HEY A8 SP); compound 5 μM, 48 h",significantly decreased the cell viability
O=C(NO[C@H](COCc1ccccc1)C(=O)Nc1ccc(F)cc1)c1cc(C(F)(F)F)cc(C(F)(F)F)c1 [sff-3-86],"Annexin V positive cells, CSCs",HEY A8 CSCs [1],30.4%
same,cell viability of HEY A8 CSCs (toxicity),"HEY A8 CSCs (HEY A8 SP); compound 5 μM, 48 h",significantly decreased the cell viability
CCC(C)[C@@H](ONC(=O)c1cc(C(F)(F)F)cc(C(F)(F)F)c1)C(=O)Nc1ccccc1 (stereo partly shown) [Amy-1-4],cell viability of HEY A8 CSCs (toxicity),"HEY A8 CSCs (HEY A8 SP); compound 5 μM, 48 h",significantly decreased the cell viability
O=C(NO[C@H](COCc1ccccc1)C(=O)NOc1ccccc1)c1cc(C(F)(F)F)cc(C(F)(F)F)c1 [FPM-1-187],cell viability of HEY A8 CSCs (toxicity),"HEY A8 CSCs (HEY A8 SP); compound 5 μM, 48 h",significantly decreased the cell viability
"CC(=O)O[C@H]1C(=O)[C@@]2(C)[C@H]([C@H](OC(=O)c3ccccc3)[C@]3(O)C[C@H](OC(=O)[C@H](O)[C@@H](NC(=O)c4ccccc4)c4ccccc4)C(C)=C1C3(C)C)[C@]1(OC(C)=O)CO[C@@H]1C[C@@H]2O [paclitaxel, reference compound]",tumor-seeding ability / tumor size of pretreated cells,HEY A8 CSCs [2],resistant
same,population of CD133+ cells after treatment,HEY A8 cells,31.6%
CC(C)C[C@@H](ONC(=O)c1cc(C(F)(F)F)cc(C(F)(F)F)c1)C(=O)Nc1ccccc1 [sff-2-124],IC50,NIH3T3,15.1 ± 0.5 µM
same,IC50,MDCK,13.2 ± 0.9 µM
same,death of Huh 7 CD133- cells,Huh 7 CD133- cells,induce the death
same,IC50,SKOV3 cancer cells,18.6 ± 5.1 µM
same,cell viability of HEY A8 CSCs (toxicity),"HEY A8 CSCs (HEY A8 SP); compound 5 μM, 48 h",significantly decreased the cell viability
same,selectivity towards ovarian CSCs over ovarian cancer cells and normal cells,HEY A8 CSCs (HEY A8 SP),selectively induce the death of ovarian CSCs
same,IC50,HEY A8 cancer cells; 48 h incubation,20.8 ± 0.9 µM
same,toxicity to huh7 CD133+ population compared with CD133- cells,[3],higher
same,death of Huh 7 CD133+ cells,[3]; different doses,induce the death
same,IC50,HEK293,67.2 ± 4.2 µM
O=C(NO[C@H](COCc1ccccc1)C(=O)Nc1ccccc1)c1ccc(C(F)(F)F)cc1 [sff-3-91],cell viability of HEY A8 CSCs (toxicity),"HEY A8 CSCs (HEY A8 SP); compound 5 μM, 48 h",significantly decreased the cell viability
CC(C)(C)OC[C@@H](ONC(=O)c1cc(C(F)(F)F)cc(C(F)(F)F)c1)C(=O)Nc1ccccc1 [sff-3-100],cell viability of HEY A8 CSCs (toxicity),"HEY A8 CSCs (HEY A8 SP); compound 5 μM, 48 h",significantly decreased the cell viability
O=C(NO[C@H](Cc1cc2ccccc2[nH]1)C(=O)Nc1ccccc1)c1cc(C(F)(F)F)cc(C(F)(F)F)c1 [Amy-1-8],cell viability of HEY A8 CSCs (toxicity),"HEY A8 CSCs (HEY A8 SP); compound 5 μM, 48 h",significantly decreased the cell viability
C[C@H](ONC(=O)c1cc(C(F)(F)F)cc(C(F)(F)F)c1)C(=O)Nc1ccccc1 [sff-3-85],cell viability of HEY A8 CSCs (toxicity),"HEY A8 CSCs (HEY A8 SP); compound 10 μM, 48 h",significantly decreased the cell viability
